Columns and labels:
[1] = target: T1, σ2 receptor (Rattus norvegicus, UniProt Q5U3Y7); assay: σ2 receptor binding assay, [3H]-DTG, liver membrane homogenates; conditions: for D3/ σ2 ratio: ratio of D3 and σ2 Ki values
T1 sequence (Q5U3Y7 1-176): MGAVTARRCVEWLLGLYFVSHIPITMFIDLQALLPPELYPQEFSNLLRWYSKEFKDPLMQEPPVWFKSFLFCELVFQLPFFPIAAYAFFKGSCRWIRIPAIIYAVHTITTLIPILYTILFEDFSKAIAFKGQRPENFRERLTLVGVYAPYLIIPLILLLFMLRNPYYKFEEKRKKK

[2] = target: σ1 receptor (Cavia porcellus, UniProt Q60492); assay: σ1 receptor binding assay; design: species or system guinea pig; conditions: ratio of D3 and σ1 Ki values
Chain of σ1 receptor (Q60492 whole entry): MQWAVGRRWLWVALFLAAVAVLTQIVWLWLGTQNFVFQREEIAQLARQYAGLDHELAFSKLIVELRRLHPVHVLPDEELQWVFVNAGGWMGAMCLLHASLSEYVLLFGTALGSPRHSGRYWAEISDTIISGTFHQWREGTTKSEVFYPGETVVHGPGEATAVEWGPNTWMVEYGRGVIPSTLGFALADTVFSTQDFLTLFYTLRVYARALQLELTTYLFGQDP

Row | Ki [1] [nM] | D3/ σ2 ratio [1] | D3/ σ1 Ratio [2] | Structure (SMILES)
1 | 1570 | 1,970 | 1,573 | COc1ccccc1N1CCN(CCCCNC(=O)c2ccc(N(C)C)cc2)CC1 [Compound 1, 4-(Dimethylamino)-N-[4-(4-(2-methoxyphenyl)piperazin-1-yl)butyl]benzamide, reference compound]
2 | 2210 | – | – | COc1ccccc1N1CCN(CCCCNC(=O)c2ccc(CCF)cc2)CC1 [Compound 2, reference compound]
3 | 660 ± 36 | – | – | COc1ccccc1N1CCN(CCCCNC(=O)c2ccc(OCCF)cc2)CC1 [Compound 18a, 4-(2-Fluoroethoxy)-N-(4-(4-(2-methoxyphenyl)-piperazin-1-yl)-butyl)benzamide]
4 | 1120 | – | 1,159 | COc1ccccc1N1CCN(CCCCNC(=O)c2ccc(OCCOCCOCCF)cc2)CC1.O=C(O)C(=O)O [Compound 18c, 4-(2-(2-(2-Fluoroethoxy)ethoxy)ethoxy)-N-(4-(4-(2-methoxyphenyl)piperazin-1-l)butyl)benzamide]
5 | 2020 | 1,839 | 6,541 | O=C(NC/C=C/CN1CCN(c2ccccc2OCCF)CC1)c1ccc(CCF)cc1.O=C(O)C(=O)O [Compound 21b, 4-(2-Fluoroethyl)-N-(4-(4-(2-(2-Fluoroethoxy)phenyl)piperazin-1-yl)-trans-butyl-2-enyl)benzamide]
6 | 1320 | 1,200 | 7,076 | O=C(NC/C=C/CN1CCN(c2ccccc2OCCF)CC1)c1ccc(-c2ccsc2)cc1.O=C(O)C(=O)O [Compound 21e, 4-(Thiophen-3-yl)-N-(4-(4-(2-(2-fluoroethoxy)phenyl)piperazin-1-yl)-trans-but-2-enyl)benzamide]

Reference: article PMC3066655 (Journal of medicinal chemistry, 2011)
